From US20220370465A1, “TREATMENT OF MAST CELL DISEASES AND EOSINOPHILIC DISORDERS” (Blueprint Medicines Corporation, priority 2019, published 2022)

Legend:
[1] = test system: tyrosine kinase inhibitor (TKI)-resistant mastocytoma model; assay: TKI-resistant mastocytoma model in vivo
mast cells = assay: Mast cell activation, proliferation and survival; format: cell-based
Source text: In a specific embodiment, the D816 mutation is D816V. In another specific embodiment, the D816 mutation is D816Y. […] In some embodiments, the inhibition is in a dose-dependent manner. […] Current treatment paradigms for mast cell diseases focus on inhibiting individual mast cell mediators for symptom control (anti-histamines, anti-IgE antibodies, etc.), or on using KIT exon 17 inhibitors in KIT mutant mMCAS.

Q: For `Cn1cc(-c2cc3c(N4CCN(c5ncc([C@@](C)(N)c6ccc(F)cc6)cn5)CC4)ncnn3c2)cn1` [Compound (I), (5)-1-(4-fluorophenyl)-1-(2-(4-(6-(1-methyl-1H-pyrazol-4-yl)pyrrolo[2,1-f][1,2,4]triazin-4-yl)piperazin-yl)pyrimidin-5-yl)ethan-1-amine], which “growth inhibition in mastocytoma model” value [1] is on record?
A: robust growth inhibition

Q: And the mast cell activation (mast cells)?
A: inhibits mast cell activation

Q: And the mast cell proliferation (mast cells)?
A: inhibits mast cell proliferation

Q: And the “survival of mast cells” value (mast cells)?
A: does not interfere with the survival of mast cells
